# Experimental data published in US7025992B2, “Pharmaceutical formulations” (priority 2001, dated 2006).
# “Also recorded” adds a separate entry of the source.
# Assays:
# [1] = Subject reports on THCV (mood enhancement, hangover); assay type: in vivo; settings: compared with THC
# [2] = Analgesic effect of THCV vs THC; assay type: in vivo; settings: compared with THC
# [3] = CBD given before THC, cognitive effects; assay type: in vivo; settings: CBD (or CBDV) administered before THC; not observed if THC is given before CBD
# [4] = Stability on storage, assay as percentage of initial value; assay type: physicochemical; settings: for stability in the formulation (in words): conclusion from Table 5
# From the text: The data are reported as percentage of initial assay value.
# [5] = Solubility of cannabinoids
# [6] = Table 3 footnote; cited from earlier work
# [7] = Table 3 footnote; naïve patients may show postural hypotension, hypertension reported on prolonged usage; cited from earlier work
# [8] = Pain relief, THC alone vs extract of cannabis; assay type: in vivo; settings: THC alone vs same quantity of THC given as an extract of cannabis
# [9] = Table 3; Brown, 1998; cited from earlier work
# CB1 (Brain receptors) = CB1 (Brain receptors) (Homo sapiens, UniProt P21554); settings: cited from earlier work
# [10] = stated as known; cited from earlier work
# [11] = Absorption (AUC) of cannabinoid and primary metabolite in blood after dosing; settings: after oropharyngeal (buccal) administration compared with sublingual
# CB1 (Brain receptors), sequence (P21554 whole entry, species assumed): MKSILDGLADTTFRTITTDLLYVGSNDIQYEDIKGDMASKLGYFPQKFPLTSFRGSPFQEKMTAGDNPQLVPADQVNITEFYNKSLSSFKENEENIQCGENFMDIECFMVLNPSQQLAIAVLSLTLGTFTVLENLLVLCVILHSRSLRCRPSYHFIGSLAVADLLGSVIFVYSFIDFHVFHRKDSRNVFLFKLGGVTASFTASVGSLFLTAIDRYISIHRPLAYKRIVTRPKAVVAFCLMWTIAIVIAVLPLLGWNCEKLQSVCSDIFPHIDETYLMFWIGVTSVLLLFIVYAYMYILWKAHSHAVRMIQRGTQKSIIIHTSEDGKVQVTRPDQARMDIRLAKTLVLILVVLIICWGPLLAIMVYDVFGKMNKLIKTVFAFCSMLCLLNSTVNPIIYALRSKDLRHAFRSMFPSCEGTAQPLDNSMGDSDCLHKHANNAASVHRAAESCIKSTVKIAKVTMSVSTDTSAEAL
structure (smiles),measurement,setting,value
"CCCc1cc(O)c2c(c1)OC(C)(C)[C@@H]1CCC(C)=C[C@@H]21 [THCV, tetrahydrocannabinovarin]",hangover,[1],less severe hangover; also recorded: reduced potential for hangover
same,mood enhancement,[1]; reported by subjects taking THCV,less disturbing than that produced by THC
same,"analgesic effect, speed",[2],more rapid analgesic effect than THC
"C=C(C)[C@@H]1CCC(C)=C[C@H]1c1c(O)cc(CCC)cc1O [CBDV, cannabidivarin]",psychoactive effects of THC,[3],diminished
same,subsequent sedation,[3],postponed and mitigated
"CCCCCc1cc(O)c2c(c1)OC(C)(C)[C@@H]1CCC(C)=C[C@@H]21 [THC, Δ^9-tetrahydrocannabinol]",stability in the formulation (in words),[4],less stable
same,solubility in aqueous excipients,[5],very low solubility
same,amount of THC that could be stabilised,[5]; aerosol sprays containing ethanol plus a propellant,0.7 mg of THC per 0.1 ml of liquid formulation
same,convulsant effect (footnote H to Anticonvulsant),[6],H THC is pro convulsant
same,effect on blood pressure (footnote ′),[7],′ THC has a biphasic effect on blood pressure; in naïve patients it may produce postural hypotension and it has also been reported to produce hypertension on prolonged usage. GW Internal Report No 002/000159.
same,degree of pain relief,[8],lower degree of pain relief than the same quantity of THC given as an extract of cannabis
same,Anti-inflammatory,[9],∀
"C=C(C)[C@@H]1CCC(C)=C[C@H]1c1c(O)cc(CCCCC)cc1O [CBD, cannabidiol]",stability in the formulation (in words),[4],good stability
same,effect as pharmaceutical stabilizer,[4]; observation of the applicants,able to act as a pharmaceutical stabilizer of pharmaceutical formulations and thus prolong shelf-life
same,solubility in aqueous excipients,[5],very low solubility
same,CB1 (Brain receptors),CB1 (Brain receptors),∀
same,psychoactive effects of THC,[3],diminished
same,subsequent sedation,[3],postponed and mitigated
same,Anti-inflammatory,[9],∀
CCCCCc1cc(O)c2c(c1)OC(C)(C)[C@@H]1CCC(CO)=C[C@@H]21 [11 OH THC],psychoactivity relative to parent compound,[10],possibly more psychoactive than the parent compound
same,reduction in the amount of 11 OH metabolite detected,[11],approximately 25%
